Data: US11111259B2, “Acylsulfonamide derivatives for treating senescence-associated diseases and disorders” (Unity Biotechnology, Inc., priority 2015, dated 2021)

Key:
BCL-xL = BCL-xL (Homo sapiens, UniProt Q07817); assay: BCL-binding assay (AlphaLISA competition, BAD peptide); conditions: 6xHis BCL-xL with biotinylated BAD peptide, 24 hr incubation
Protocol: (§1) Compounds were prepared as 400× DMSO stock solutions in a 1:4 dilution series then diluted […] in assay buffer (25 mM HEPES pH 7.5, 100 mM NaCl, 0.1% BSA, 0.005% Tween) immediately before use. Aliquots of 400 nM 6xHis-tagged BCL-xL, BCL-2, and BCL-w were thawed on ice and diluted to 0.4 (BCL-XL) or 0.8 (BCL-W and 2) nM in assay buffer. Aliquots of biotinylated BIM and BAD peptides were diluted in assay buffer to 120 and 60 nM respectively. Ten microliters of biotinylated peptide were added to wells of a 96-well PCR plate, followed by ten microliters of inhibitor, then ten microliters of BCL protein, BCL-XL with BAD and BCL-W/2 with BIM. The plates were sealed and incubated at room temperature. After 24 hr, 0.16 μg Anti-His conjugated AlphaLISA acceptor beads were added in 5 μL assay buffer. After one hour at room temperature, 0.16 μg AlphaScreen streptavidin donor beads were added in 5 μL assay buffer and plates were incubated an additional 30 min in the dark. Two 17 μL aliquots of each reaction were plated in a Perkin Elmer 384-well proxiplate, and plates were scanned for using a Perkin Elmer Enspire plate reader. Kd values were calculated in Prism Graph Pad using a one site competitive binding model and previously determined Kd values for each protein peptide pair. […]

BCL-2 = BCL-2 (Homo sapiens, UniProt P10415); assay: BCL-binding assay (AlphaLISA competition, BIM peptide); conditions: 6xHis BCL-2 with biotinylated BIM peptide, 24 hr incubation
BCL-2, sequence (P10415 whole entry, species assumed): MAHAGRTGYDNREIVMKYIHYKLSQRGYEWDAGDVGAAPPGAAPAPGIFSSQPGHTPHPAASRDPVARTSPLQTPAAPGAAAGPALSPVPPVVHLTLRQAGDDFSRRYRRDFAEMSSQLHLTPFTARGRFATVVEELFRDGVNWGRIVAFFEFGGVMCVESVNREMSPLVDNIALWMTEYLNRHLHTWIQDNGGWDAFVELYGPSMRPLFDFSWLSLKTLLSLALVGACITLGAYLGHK
Protocol: as §1

BCL-w = target: T1, BCL-w (Homo sapiens, UniProt Q92843); assay: as above; conditions: 6xHis BCL-w with biotinylated BIM peptide, 24 hr incubation
T1 sequence (Q92843 1-193): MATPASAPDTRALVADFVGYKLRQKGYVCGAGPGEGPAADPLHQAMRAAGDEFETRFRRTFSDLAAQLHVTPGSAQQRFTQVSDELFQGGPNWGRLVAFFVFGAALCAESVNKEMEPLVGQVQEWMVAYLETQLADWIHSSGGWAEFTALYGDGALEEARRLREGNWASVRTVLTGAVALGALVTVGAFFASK
Protocol: as §1

[1] = tested on: IMR-90 SnC (irradiated senescent IMR90 cells); assay: Senolysis assay (CellTiter-Glo viability); type: cell-based, human; conditions: for EC50: Homo sapiens, IMR-90, light or radiation study, 72 h, X-ray irradiated senescent IMR90 cells, viability three days after compound addition; for SI (ratio of EC50 of non-senescent cells to EC50 of senescent cells): IMR90 non-senescent vs senescent cells
Protocol: IMR90 cells are maintained in DMEM supplemented with 10% FBS. To prepare a senescent population, cells were trypsinized, diluted to 50,000 per mL, and irradiated with 10-15 Gy of X-ray irradiation. Irradiated cells were plated at 5000 cells per well in one third of a 96-well plate and maintained for two weeks prior to the assay. Four days prior to the assay, non-senescent IMR90s were plated at 2500 per well in the second third of the plate. One day prior to the assay, 2500 non-senescent cells were plated in the final third of the plate. Compounds were prepared as a 200×DMSO dilution series then diluted to 1× in media immediately before adding to cells. Three days after compound addition, cell viability was measured using CellTiter-Glo reagent from Promega. Viability was calculated relative to a DMSO control and EC50 values are calculated in Prism GraphPad. […] The selectivity (SI) of the compounds described herein is a ratio of the EC50 of non-senescent cells to the EC50 of senescent cells. The SI of the compounds described herein is 10 or above for “A” selectivity, between 2 and 10 for “B” selectivity or 2 or less for “C” selectivity.

BCL-xL, sequence (Q07817 whole entry, species assumed): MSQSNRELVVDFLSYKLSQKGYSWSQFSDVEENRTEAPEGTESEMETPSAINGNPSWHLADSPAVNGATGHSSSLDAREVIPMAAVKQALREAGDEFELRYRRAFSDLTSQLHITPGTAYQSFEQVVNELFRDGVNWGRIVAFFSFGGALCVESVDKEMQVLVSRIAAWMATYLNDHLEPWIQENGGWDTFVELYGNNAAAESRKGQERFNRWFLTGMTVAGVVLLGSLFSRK

SMILES | Kd (BCL-xL) | Kd (BCL-2) | Kd (BCL-w) | EC50 [1] | SI (ratio of EC50 of non-senescent cells to EC50 of senescent cells) [1]
CCOP(=O)(O)CCCN1CCN(CC[C@H](CSc2ccccc2)Nc2ccc(S(=O)(=O)NC(=O)c3ccc(N4CCN(CC5=C(c6ccc(Cl)cc6)CCC(C)(C)C5)CC4)cc3)cc2S(=O)(=O)C(F)(F)F)CC1 [Compound 31] | < 1 nM | < 1 nM | 1 to 10 nM | > 10000 nM | –
CC1(C)CCC(c2ccc(Cl)cc2)=C(CN2CCN(c3ccc(C(=O)NS(=O)(=O)c4ccc(N[C@H](CCN5CCN(CCCP(=O)(O)O)CC5)CSc5ccccc5)c(S(=O)(=O)C(F)(F)F)c4)cc3)CC2)C1 [Compound 32] | < 1 nM | < 1 nM | 10 to 50 nM | > 10000 nM | –
CCOP(=O)(CCCN1CCN(CC[C@H](CSc2ccccc2)Nc2ccc(S(=O)(=O)NC(=O)c3ccc(N4CCN(CC5=C(c6ccc(Cl)cc6)CCC(C)(C)C5)CC4)cc3)cc2S(=O)(=O)C(F)(F)F)CC1)OCOC(=O)C(C)(C)C (stereo partly drawn) [Compound 33] | < 1 nM | < 1 nM | 1 to 10 nM | > 10000 nM | B (between 2 and 10)
CCOP(=O)(CN1CCN(CC(CSc2ccccc2)Nc2ccc(S(=O)(=O)NC(=O)c3ccc(N4CCN(CC5=C(c6ccc(Cl)cc6)CCC(C)(C)C5)CC4)cc3)cc2S(=O)(=O)C(F)(F)F)CC1)OCC (stereo not drawn) [Compound 34] | 1 to 10 nM | < 1 nM | > 50 nM | > 10000 nM | C (2 or less)
CCOP(=O)(CCN1CCN(CC(CSc2ccccc2)Nc2ccc(S(=O)(=O)NC(=O)c3ccc(N4CCN(CC5=C(c6ccc(Cl)cc6)CCC(C)(C)C5)CC4)cc3)cc2S(=O)(=O)C(F)(F)F)CC1)OCC (stereo not drawn) [Compound 35, Diethyl (2-(4-(2-((4-(N-(4-(4-((4′-chloro-4,4-dimethyl-3,4,5,6-tetrahydro-[1,1′-biphenyl]-2-yl)methyl)piperazin-1-yl)benzoyl)sulfamoyl)-2-((trifluoromethyl)sulfonyl)phenyl)amino)-3-(phenylthio)propyl)piperazin-1-yl)ethyl)phosphonate] | 1 to 10 nM | < 1 nM | > 50 nM | 1000 to 10000 nM | C (2 or less)
CCOP(=O)(CCCN1CCN(CC[C@H](CSc2ccccc2)Nc2ccc(S(=O)(=O)NC(=O)c3ccc(N4CCN(CC5=C(c6ccc(Cl)cc6)CCC(C)(C)C5)CC4)cc3)cc2S(=O)(=O)C(F)(F)F)CC1)OCOC(=O)OC(C)C (stereo partly drawn) [Compound 36] | < 1 nM | < 1 nM | 10 to 50 nM | 1000 to 10000 nM | B (between 2 and 10)
CCOP(=O)(CCCN1CCN(CC[C@H](CSc2ccccc2)Nc2ccc(S(=O)(=O)NC(=O)c3ccc(N4CCN(CC5=C(c6ccc(Cl)cc6)CCC(C)(C)C5)CC4)cc3)cc2S(=O)(=O)C(F)(F)F)CC1)OCOC(C)=O (stereo partly drawn) [Compound 37] | < 1 nM | < 1 nM | 1 to 10 nM | 1000 to 10000 nM | B (between 2 and 10)
CCOP(=O)(CCN1CCN(CC[C@H](CSc2ccccc2)Nc2ccc(S(=O)(=O)NC(=O)c3ccc(N4CCN(CC5=C(c6ccc(Cl)cc6)CCC(C)(C)C5)CC4)cc3)cc2S(=O)(=O)C(F)(F)F)CC1)OCOC(=O)C(C)(C)C (stereo partly drawn) [Compound 38] | < 1 nM | < 1 nM | 10 to 50 nM | 1000 to 10000 nM | A (10 or above)
CCOP(=O)(CN1CCN(CC[C@H](CSc2ccccc2)Nc2ccc(S(=O)(=O)NC(=O)c3ccc(N4CCN(CC5=C(c6ccc(Cl)cc6)CCC(C)(C)C5)CC4)cc3)cc2S(=O)(=O)C(F)(F)F)CC1)OCOC(=O)OC(C)C (stereo partly drawn) [Compound 39, [[4-[(3R)-3-[4-[[4-[4-[[2-(4-Chlorophenyl)-5,5-dimethyl-cyclohexen-1-yl]methyl]piperazin-1-yl]benzoyl]sulfamoyl]-2-(trifluoromethylsulfonyl)anilino]-4-phenylsulfanyl-butyl]piperazin-1-yl]methyl-ethoxy-phosphoryl]oxymethyl isopropyl carbonate] | < 1 nM | < 1 nM | 10 to 50 nM | < 1000 nM | A (10 or above)
CC1(C)CCC(c2ccc(Cl)cc2)=C(CN2CCN(c3ccc(C(=O)NS(=O)(=O)c4ccc(N[C@H](CCN5CCN(CCCP(=O)(OCOC(=O)C(C)(C)C)OCOC(=O)C(C)(C)C)CC5)CSc5ccccc5)c(S(=O)(=O)C(F)(F)F)c4)cc3)CC2)C1 [Compound 40] | < 1 nM | < 1 nM | 10 to 50 nM | > 10000 nM | B (between 2 and 10)
CCOP(=O)(C=C1CCN(CC[C@H](CSc2ccccc2)Nc2ccc(S(=O)(=O)NC(=O)c3ccc(N4CCN(CC5=C(c6ccc(Cl)cc6)CCC(C)(C)C5)CC4)cc3)cc2S(=O)(=O)C(F)(F)F)CC1)OCC [Compound 41, Diethyl (R)-((1-(3-((4-(N-(4-(4-((4′-chloro-4,4-dimethyl-3,4,5,6-tetrahydro-[1,1′-biphenyl]-2-yl)methyl)piperazin-1-yl)benzoyl)sulfamoyl)-2-((trifluoromethyl)sulfonyl)phenyl)amino)-4-(phenylthio)butyl)piperidin-4-ylidene)methyl)phosphonate] | < 1 nM | < 1 nM | 1 to 10 nM | < 1000 nM | A (10 or above)
CC1(C)CCC(c2ccc(Cl)cc2)=C(CN2CCN(c3ccc(C(=O)NS(=O)(=O)c4ccc(N[C@H](CCN5CCN(CCP(=O)(OCOC(=O)C(C)(C)C)OCOC(=O)C(C)(C)C)CC5)CSc5ccccc5)c(S(=O)(=O)C(F)(F)F)c4)cc3)CC2)C1 [Compound 43, (R)-(((2-(4-(3-((4-(N-(4-(4-((4′-chloro-4,4-dimethyl-3,4,5,6-tetrahydro-[1,1′-biphenyl]-2-yl)methyl)piperazin-1-yl)benzoyl)sulfamoyl)-2-((trifluoromethyl)sulfonyl)phenyl)amino)-4-(phenylthio)butyl)piperazin-1-yl)ethyl)phosphoryl)bis(oxy))bis(methylene) bis(2,2-dimethylpropanoate)] | 1 to 10 nM | < 1 nM | 10 to 50 nM | > 10000 nM | –
CCOP(=O)(CN1CCN(CC[C@H](C[S+]([O-])c2ccccc2)Nc2ccc(S(=O)(=O)NC(=O)c3ccc(N4CCN(CC5=C(c6ccc(Cl)cc6)CCC(C)(C)C5)CC4)cc3)cc2S(=O)(=O)C(F)(F)F)CC1)OCC (stereo partly drawn) [Compound 44, Diethyl ((4-((3R)-3-((4-(N-(4-(4-((4′-chloro-4,4-dimethyl-3,4,5,6-tetrahydro-[1,1′-biphenyl]-2-yl)methyl)piperazin-1-yl)benzoyl)sulfamoyl)-2-((trifluoromethyl)sulfonyl)phenyl)amino)-4-(phenylsulfinyl)butyl)piperazin-1-yl)methyl)phosphonate] | < 1 nM | < 1 nM | 10 to 50 nM | 1000 to 10000 nM | B (between 2 and 10)
CC1(C)CCC(c2ccc(Cl)cc2)=C(CN2CCN(c3ccc(C(=O)NS(=O)(=O)c4ccc(N[C@H](CCN5CCN(CCP(=O)(O)OCOC(=O)C(C)(C)C)CC5)CSc5ccccc5)c(S(=O)(=O)C(F)(F)F)c4)cc3)CC2)C1 [Compound 45, (((2-(4-((R)-3-((4-(N-(4-(4-((4′-chloro-4,4-dimethyl-3,4,5,6-tetrahydro-[1,1′-biphenyl]-2-yl)methyl)piperazin-1-yl)benzoyl)sulfamoyl)-2-((trifluoromethyl)sulfonyl)phenyl)amino)-4-(phenylthio)butyl)piperazin-1-yl)ethyl)(hydroxy)phosphoryl)oxy)methyl pivalate] | < 1 nM | < 1 nM | 1 to 10 nM | > 10000 nM | –
